PubChem BioAssay (NCI)
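Cells were grown in 96-well plates and exposed to each compound for 48 hours at five concentrations; endpoints were interpolated linearly between bracketing concentrations, or set to the highest concentration if not reached. TGI: total growth inhibition.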

Tests used:
Experiment in all cases: DTP human tumour cell line panel, 48 h
[1] = tested on: SK-MEL-2 melanoma
[2] = tested on: OVCAR-4 ovarian
[3] = tested on: HOP-62 NSCLC
[4] = tested on: U251 CNS
[5] = tested on: HS 578T breast
[6] = tested on: NCI-H460 lung
[7] = tested on: COLO 205 colon
[8] = tested on: HCT-15 colon
[9] = tested on: NCI-H226 lung
[10] = tested on: EKVX NSCLC
[11] = tested on: SW-620 colon
[12] = tested on: RXF 393 renal
[13] = tested on: SK-OV-3 ovarian
[14] = tested on: DU-145 prostate
[15] = tested on: SF-539 CNS
[16] = tested on: PC-3 prostate
[17] = tested on: HCT-116 colon
[18] = tested on: SNB-75 CNS
[19] = tested on: UACC-257 melanoma
[20] = tested on: NCI-H23 lung
[21] = tested on: 786-0 renal
[22] = tested on: MALME-3M melanoma
[23] = tested on: SR leukemia
[24] = tested on: SNB-19 CNS
[25] = tested on: ACHN renal
[26] = tested on: NCI/ADR-RES ovarian
[27] = tested on: MDA-MB-231 breast
[28] = tested on: KM12 colon
[29] = tested on: K-562 leukemia
[30] = tested on: A549 NSCLC
[31] = tested on: CCRF-CEM leukemia
[32] = tested on: SF-295 CNS
[33] = tested on: MOLT-4 leukemia
[34] = tested on: OVCAR-3 ovarian
[35] = tested on: RPMI-8226 leukemia
[36] = tested on: TK-10 renal
[37] = tested on: M14 melanoma
[38] = tested on: CAKI-1 renal
[39] = tested on: OVCAR-5 ovarian
[40] = tested on: T-47D breast
[41] = tested on: SF-268 CNS
[42] = tested on: UO-31 renal
[43] = tested on: SK-MEL-5 melanoma
[44] = tested on: MCF7 breast
[45] = tested on: HT29 colon
[46] = tested on: MDA-MB-435
[47] = tested on: LOX IMVI melanoma
[48] = tested on: A498 renal
[49] = tested on: SK-MEL-28 melanoma
[50] = tested on: HL-60(TB) leukemia
[51] = tested on: UACC-62 melanoma
[52] = tested on: MDA-N
[53] = tested on: SN12C renal
[54] = tested on: HOP-92 NSCLC
[55] = tested on: IGROV1 ovarian
[56] = tested on: BT-549 breast
[57] = tested on: NCI-H522 lung
[58] = tested on: HCC-2998 colon
[59] = tested on: OVCAR-8 ovarian

For `O=C1CSC(c2cccc(Cl)c2)N1c1c(O)c(Cl)cc(Br)c1Cl` (stereo not drawn), the TGI [1] was 29 µM, the TGI [2] was 28.1 µM and the TGI [3] was > 100 µM. For the same compound, the TGI [4] was 72.3 µM, the TGI [5] was > 100 µM and the TGI [6] was > 100 µM. For the same compound, the TGI [7] was 61.2 µM, the TGI [8] was 28.3 µM and the TGI [9] was > 100 µM. The TGI [10] was > 100 µM, the TGI [11] was 32.7 µM and the TGI [12] was 35.7 µM. The TGI [13] was > 100 µM, the TGI [14] was > 100 µM and the TGI [15] was > 100 µM. The TGI [16] was > 100 µM, the TGI [17] was 28.8 µM and the TGI [18] was > 100 µM. The TGI [19] was 67.4 µM, the TGI [20] was > 100 µM and the TGI [21] was 71.7 µM. For the same compound, the TGI [22] was > 100 µM, the TGI [23] was 70.6 µM and the TGI [24] was > 100 µM. The TGI [25] was 27.9 µM, the TGI [26] was > 100 µM and the TGI [27] was 27.5 µM. For the same compound, the TGI [28] was > 100 µM, the TGI [29] was > 100 µM and the TGI [30] was > 100 µM. The TGI [31] was 44.8 µM, the TGI [32] was > 100 µM and the TGI [33] was 57.9 µM. For the same compound, the TGI [34] was 33.4 µM, the TGI [35] was 39.4 µM and the TGI [36] was > 100 µM. For the same compound, the TGI [37] was > 100 µM, the TGI [38] was > 100 µM and the TGI [39] was > 100 µM. The TGI [40] was 41.7 µM, the TGI [41] was > 100 µM and the TGI [42] was 28.9 µM. The TGI [43] was > 100 µM, the TGI [44] was 29 µM and the TGI [45] was > 100 µM. For the same compound, the TGI [46] was 31.9 µM, the TGI [47] was 29.8 µM and the TGI [48] was > 100 µM. The TGI [49] was > 100 µM, the TGI [50] was 51.8 µM and the TGI [51] was 56.9 µM. For the same compound, the TGI [52] was 34.1 µM, the TGI [53] was > 100 µM and the TGI [54] was 29.9 µM.
`CN(C)Cc1cc(C(C)(C)C)cc(CNC2CCCCC2)c1O` was tested, and the TGI [1] was > 100 µM, the TGI [2] was > 100 µM and the TGI [3] was > 100 µM. For the same compound, the TGI [4] was > 100 µM, the TGI [5] was > 100 µM and the TGI [6] was 44.6 µM. The TGI [7] was 33.3 µM, the TGI [8] was > 100 µM and the TGI [55] was > 100 µM. The TGI [10] was > 100 µM, the TGI [11] was > 100 µM and the TGI [12] was > 100 µM. The TGI [13] was > 100 µM, the TGI [14] was > 100 µM and the TGI [15] was 63.5 µM. The TGI [56] was > 100 µM, the TGI [16] was > 100 µM and the TGI [17] was 71.5 µM. The TGI [57] was 60.4 µM, the TGI [18] was > 100 µM and the TGI [19] was 79.8 µM. The TGI [20] was > 100 µM, the TGI [21] was > 100 µM and the TGI [22] was 64 µM. For the same compound, the TGI [23] was 71.8 µM, the TGI [24] was > 100 µM and the TGI [25] was > 100 µM. For the same compound, the TGI [26] was 69.4 µM, the TGI [27] was > 100 µM and the TGI [28] was > 100 µM. The TGI [29] was 76.2 µM, the TGI [30] was > 100 µM and the TGI [31] was 43.7 µM. For the same compound, the TGI [32] was 57.1 µM, the TGI [33] was 33.5 µM and the TGI [34] was > 100 µM. For the same compound, the TGI [35] was 57.9 µM, the TGI [36] was > 100 µM and the TGI [37] was 34.4 µM. The TGI [38] was > 100 µM, the TGI [39] was 73.3 µM and the TGI [40] was > 100 µM. The TGI [41] was 47.4 µM, the TGI [42] was 34.6 µM and the TGI [43] was 30.2 µM. For the same compound, the TGI [44] was > 100 µM, the TGI [45] was 54.6 µM and the TGI [46] was > 100 µM. The TGI [47] was 76.5 µM, the TGI [48] was > 100 µM and the TGI [49] was > 100 µM. The TGI [58] was 23.7 µM, the TGI [51] was > 100 µM and the TGI [52] was > 100 µM. For the same compound, the TGI [53] was > 100 µM and the TGI [54] was 59.7 µM.
In the case of `O=C1C(=Cc2ccco2)C(=O)C2CCCCC12` (stereo not drawn), the TGI [1] is reported as > 100 µM, the TGI [2] is reported as > 100 µM and the TGI [3] is reported as > 100 µM. For the same compound, the TGI [4] was > 100 µM, the TGI [5] was > 100 µM and the TGI [6] was > 100 µM. The TGI [7] was > 100 µM, the TGI [8] was > 100 µM and the TGI [9] was > 100 µM. For the same compound, the TGI [55] was > 100 µM, the TGI [10] was > 100 µM and the TGI [11] was > 100 µM. For the same compound, the TGI [12] was > 100 µM, the TGI [13] was > 100 µM and the TGI [14] was > 100 µM. The TGI [15] was > 100 µM, the TGI [56] was > 100 µM and the TGI [16] was > 100 µM. For the same compound, the TGI [17] was > 100 µM, the TGI [57] was > 100 µM and the TGI [18] was > 100 µM. For the same compound, the TGI [19] was > 100 µM, the TGI [20] was > 100 µM and the TGI [21] was > 100 µM. The TGI [22] was > 100 µM, the TGI [23] was > 100 µM and the TGI [24] was > 100 µM. For the same compound, the TGI [25] was > 100 µM, the TGI [26] was > 100 µM and the TGI [27] was > 100 µM. The TGI [28] was > 100 µM, the TGI [29] was 73.2 µM and the TGI [30] was > 100 µM. The TGI [31] was > 100 µM, the TGI [32] was > 100 µM and the TGI [33] was > 100 µM. The TGI [34] was > 100 µM, the TGI [35] was > 100 µM and the TGI [36] was > 100 µM. The TGI [37] was > 100 µM, the TGI [38] was > 100 µM and the TGI [39] was > 100 µM. For the same compound, the TGI [40] was > 100 µM, the TGI [41] was > 100 µM and the TGI [43] was > 100 µM. The TGI [44] was > 100 µM, the TGI [45] was > 100 µM and the TGI [46] was > 100 µM. For the same compound, the TGI [59] was > 100 µM, the TGI [47] was > 100 µM and the TGI [48] was > 100 µM. For the same compound, the TGI [49] was > 100 µM, the TGI [58] was > 100 µM and the TGI [51] was > 100 µM. For the same compound, the TGI [52] was > 100 µM, the TGI [53] was > 100 µM and the TGI [54] was > 100 µM.
`Cc1ccc(C2(N3CCCC3)OC(C)(C)c3cccc4cccc2c34)cc1` (stereo not drawn) showed a TGI [1] of 28.2 µM, a TGI [2] of 27.6 µM and a TGI [3] of 32.3 µM. For the same compound, the TGI [4] was 29.4 µM, the TGI [5] was 31.8 µM and the TGI [6] was 26.3 µM. It also gave a TGI [7] of 30.3 µM, a TGI [8] of 32.2 µM and a TGI [9] of 31.8 µM. For the same compound, the TGI [55] was 29.8 µM, the TGI [10] was 24 µM and the TGI [11] was 30.9 µM. For the same compound, the TGI [12] was 27.1 µM, the TGI [13] was 29.3 µM and the TGI [14] was 32.8 µM. The TGI [15] was 32.1 µM, the TGI [56] was 31.3 µM and the TGI [16] was 36.2 µM. It also gave a TGI [17] of 38.4 µM, a TGI [57] of 25.6 µM and a TGI [18] of 26.3 µM. It also gave a TGI [19] of 31 µM, a TGI [20] of 29.9 µM and a TGI [21] of 37.6 µM. The TGI [22] was 41.4 µM, the TGI [23] was 67.6 µM and the TGI [24] was 29.8 µM. The TGI [25] was 29.9 µM, the TGI [26] was 30.1 µM and the TGI [28] was > 100 µM. For the same compound, the TGI [29] was > 100 µM, the TGI [30] was 24.6 µM and the TGI [31] was > 100 µM. For the same compound, the TGI [32] was 28 µM, the TGI [33] was > 100 µM and the TGI [34] was 30.3 µM. For the same compound, the TGI [35] was 71.9 µM, the TGI [36] was 38.6 µM and the TGI [37] was 34 µM. For the same compound, the TGI [38] was 36.5 µM, the TGI [39] was 31.4 µM and the TGI [40] was 46.9 µM. For the same compound, the TGI [41] was 25.8 µM, the TGI [42] was 28.3 µM and the TGI [43] was 28.2 µM. The TGI [44] was 32.5 µM, the TGI [45] was 26.2 µM and the TGI [46] was 28 µM. The TGI [59] was 29.8 µM, the TGI [47] was 29.3 µM and the TGI [48] was 30 µM. The TGI [50] was > 100 µM, the TGI [51] was 27.5 µM and the TGI [52] was 29.9 µM. For the same compound, the TGI [53] was 32.6 µM and the TGI [54] was 21.2 µM.
